Assay results: EPA's ToxRefDB 2

What was measured:
rat [1] = conditions: Combined chronic toxicity/carcinogenicity, fischer, Oral, Feed, dose end: 2 year, group: systemic
dog [2] = conditions: Chronic toxicity; beagle; Oral; Capsule; dose end: 52 week; group: systemic; systemic / clinical chemistry / thyroxine (t4) / thyroxine (t4), total
rabbit = conditions: Prenatal developmental toxicity study, dutch, Oral, Gavage/Intubation, dose end: 18 GD, group: maternal
mouse [3] = conditions: Chronic toxicity, b6c3f1, Oral, Feed, dose end: 1 year, group: systemic
rat [4] = conditions: Multigenerational reproductive toxicity study, fischer, Oral, Feed, dose end: 2 generation
mouse [5] = conditions: Carcinogenicity, b6c3f1, Oral, Feed, dose end: 2 year, group: systemic
mouse [6] = conditions: Carcinogenicity, b6c3f1, Oral, Feed, dose end: 24 month, group: systemic
mouse [7] = conditions: Subchronic oral toxicity in rodents, b6c3f1, Feed, dose end: 90 day, group: systemic, systemic / clinical chemistry / glucose / glucose + systemic / in life observation / body weight / body weight gain + systemic / clinical …
rat [8] = conditions: Subchronic oral toxicity in rodents, fischer, Feed, dose end: 90 day, group: systemic
mouse [9] = conditions: Subchronic oral toxicity in rodents, b6c3f1, Feed, dose end: 90 day, group: systemic
rat [10] = conditions: Prenatal developmental toxicity study, sprague dawley, Oral, Gavage/Intubation, dose end: 17 GD
mouse [11] = conditions: Carcinogenicity; cd1; Oral; Feed; dose end: 80 week; group: systemic; systemic / pathology microscopic / liver / adenoma + systemic / in life observation / body weight / body weight gain + systemic / in life …
dog [12] = conditions: Chronic toxicity; beagle; Oral; Feed; dose end: 52 week; group: systemic; systemic / organ weight / liver / relative to body weight + systemic / pathology microscopic / liver / vacuolization + systemic / pathology …
rat [13] = conditions: Subchronic oral toxicity in rodents, sprague dawley, Feed, dose end: 90 day, group: systemic, systemic / in life observation / body weight / body weight + systemic / in life observation / body weight / body weight gain + systemic / in…
dog [14] = conditions: Subchronic oral toxicity in nonrodent, beagle, Feed, dose end: 90 day, group: systemic, systemic / hematology / erythrocyte (rbc) count differential / erythrocyte (rbc) + systemic / hematology / hematocrit (hct) / hematocrit (…
rat [15] = conditions: Combined chronic toxicity/carcinogenicity, other, Oral, Feed, dose end: 24 month, group: systemic
[16] = systemic / hematology / erythrocyte (rbc) count differential / erythrocyte (rbc) + systemic / hematology / hematocrit (hct) / hematocrit (…
[17] = systemic / pathology microscopic / mammary gland / fibroadenoma
[18] = systemic / in life observation / food consumption / food consumption + reproductive / offspring survival early / litter size / litter size…
[19] = systemic / in life observation / food consumption / food consumption + systemic / in life observation / body weight / body weight gain
[20] = systemic / pathology microscopic / kidney / pyelonephritis + systemic / pathology microscopic / urinary bladder / inflammation + systemic / …
[21] = group: offspring, systemic / in life observation / body weight / offspring (pup) weight
[22] = group: parental, systemic / organ weight / kidney / absolute + systemic / organ weight / kidney / relative to body weight + systemic / pathology microscopic…
[23] = systemic / in life observation / body weight / body weight gain
[24] = systemic / organ weight / uterus / absolute
[25] = systemic / in life observation / body weight / body weight gain + systemic / organ weight / uterus / absolute + systemic / organ weight / …
[26] = systemic / organ weight / kidney / absolute + systemic / organ weight / kidney / relative to body weight + systemic / pathology microscopic…
[27] = systemic / urinalysis / sediment microscopic / crystalluria + systemic / urinalysis / ph / ph
[28] = systemic / in life observation / body weight / body weight + systemic / organ weight / spleen / absolute
[29] = group: developmental, developmental / developmental malformation / bone / incomplete ossification + systemic / in life observation / body weight / fetal weight
[30] = group: developmental, developmental / developmental malformation / bone / incomplete ossification + systemic / in life observation / body weight / fetal weight + …
[31] = group: maternal, reproductive / reproductive performance / preimplantation loss / preimplantation loss + systemic / in life observation / body weight / body …
[32] = systemic / in life observation / body weight / body weight gain + systemic / in life observation / body weight / body weight + systemic / …

Structure (SMILES): CCCN(CCC)c1c([N+](=O)[O-])cc(S(N)(=O)=O)cc1[N+](=O)[O-] [Oryzalin]
- LOAEL (rat [1]; [16]): 42.9 mg/kg/day
- NOAEL (rat [1]; [16]): 13.8 mg/kg/day
- LEL (rat [1]; [17]): 13.8 mg/kg/day
- NEL (rat [1]; [17]): < 13.8 mg/kg/day
- LEL (dog [2]): 1.5 mg/kg/day
- LOAEL (dog [2]): 15 mg/kg/day
- NEL (dog [2]): < 1.5 mg/kg/day
- NOAEL (dog [2]): 5 mg/kg/day
- LEL (rabbit; [18]): 55 mg/kg/day
- LOAEL (rabbit; [18]): 55 mg/kg/day
- NEL (rabbit; [19]): 25 mg/kg/day
- NOAEL (rabbit; [19]): 25 mg/kg/day
- LEL (mouse [3]; systemic / clinical chemistry / creatinine / creatinine + systemic / clinical chemistry / urea nitrogen / urea nitrogen): 193 mg/kg/day
- NEL (mouse [3]; systemic / clinical chemistry / creatinine / creatinine + systemic / clinical chemistry / urea nitrogen / urea nitrogen + systemic / …): 71 mg/kg/day
- LOAEL (mouse [3]; [20]): > 521 mg/kg/day
- NOAEL (mouse [3]; [20]): ≥ 521 mg/kg/day
- LEL (rat [4]; [21]): 179 mg/kg/day
- LOAEL (rat [4]; [21]): 179 mg/kg/day
- NEL (rat [4]; [21]): 58.7 mg/kg/day
- NOAEL (rat [4]; [21]): 58.7 mg/kg/day
- LOAEL (rat [4]; [22]): 19.4 mg/kg/day
- NOAEL (rat [4]; [22]): < 19.4 mg/kg/day
- LOAEL (mouse [5]; [23]): 287 mg/kg/day
- NOAEL (mouse [5]; [23]): 104 mg/kg/day
- LEL (mouse [5]; [24]): 112 mg/kg/day
- NEL (mouse [5]; systemic / organ weight / uterus / absolute + systemic / clinical chemistry / glucose / glucose + systemic / hematology / hematocrit (hct…): 42.2 mg/kg/day
- LOAEL (mouse [6]; [23]): 521 mg/kg/day
- NEL (mouse [6]; [25]): 71 mg/kg/day
- NOAEL (mouse [6]; [25]): 193 mg/kg/day
- LEL (mouse [6]; [24]): 193 mg/kg/day
- LEL (mouse [7]): 1430 mg/kg/day
- LOAEL (mouse [7]): > 1430 mg/kg/day
- NEL (mouse [7]): < 1430 mg/kg/day
- NOAEL (mouse [7]): ≥ 1430 mg/kg/day
- LOAEL (rat [8]; [26]): 45.9 mg/kg/day
- NOAEL (rat [8]; [26]): 4.56 mg/kg/day
- LEL (rat [8]; [27]): 4.56 mg/kg/day
- NEL (rat [8]; [27]): < 4.56 mg/kg/day
- LOAEL (mouse [9]; systemic / in life observation / body weight / body weight): 1140 mg/kg/day
- LEL (mouse [9]; [28]): 1140 mg/kg/day
- NEL (mouse [9]; [28]): 521 mg/kg/day
- NOAEL (mouse [9]; [28]): 521 mg/kg/day
- LEL (rat [10]; [29]): 225 mg/kg/day
- LOAEL (rat [10]; [29]): 225 mg/kg/day
- NEL (rat [10]; [30]): 50 mg/kg/day
- NOAEL (rat [10]; [30]): 50 mg/kg/day
- LEL (rat [10]; [31]): 225 mg/kg/day
- LOAEL (rat [10]; [31]): 225 mg/kg/day
- NEL (rat [10]; [31]): 50 mg/kg/day
- NOAEL (rat [10]; [31]): 50 mg/kg/day

Structure (SMILES): COC(=O)c1ccccc1S(=O)(=O)NC(=O)Nc1nc(OC(F)F)cc(OC(F)F)n1 [Primisulfuron-methyl]
- LEL (mouse [11]): 408 mg/kg/day
- LOAEL (mouse [11]): 408 mg/kg/day
- NEL (mouse [11]): 40.2 mg/kg/day
- NOAEL (mouse [11]): 40.2 mg/kg/day
- LEL (dog [12]): 125 mg/kg/day
- LOAEL (dog [12]): 125 mg/kg/day
- NEL (dog [12]): 25 mg/kg/day
- NOAEL (dog [12]): 25 mg/kg/day
- LEL (rat [13]): 150 mg/kg/day
- LOAEL (rat [13]): 150 mg/kg/day
- NEL (rat [13]): 15 mg/kg/day
- NOAEL (rat [13]): 15 mg/kg/day
- LEL (dog [14]): 250 mg/kg/day
- LOAEL (dog [14]): 250 mg/kg/day
- NEL (dog [14]): 25 mg/kg/day
- NOAEL (dog [14]): 25 mg/kg/day
- LEL (rat [15]; [23]): 127 mg/kg/day
- LOAEL (rat [15]; [23]): 127 mg/kg/day
- NEL (rat [15]; [32]): 12.4 mg/kg/day
- NOAEL (rat [15]; [32]): 12.4 mg/kg/day
